Test results as given in BindingDB's records for doi:10.1007/s00213-002-1073-7 (WestfÄLische Wilhelms-Universit&Auml, 2002).

Tests used:
[1] = target: Kappa-type opioid receptor (Homo sapiens, UniProt P41145)
Mu-type opioid receptor = Mu-type opioid receptor (Homo sapiens, UniProt P35372)
[2] = target: Sodium-dependent serotonin transporter (Homo sapiens, UniProt P31645)
[3] = target: Sodium-dependent noradrenaline transporter (Homo sapiens, UniProt P23975)
[4] = target: 5-hydroxytryptamine receptor 7 (Homo sapiens, UniProt P34969)
Sequence of 5-hydroxytryptamine receptor 7 (P34969 whole entry): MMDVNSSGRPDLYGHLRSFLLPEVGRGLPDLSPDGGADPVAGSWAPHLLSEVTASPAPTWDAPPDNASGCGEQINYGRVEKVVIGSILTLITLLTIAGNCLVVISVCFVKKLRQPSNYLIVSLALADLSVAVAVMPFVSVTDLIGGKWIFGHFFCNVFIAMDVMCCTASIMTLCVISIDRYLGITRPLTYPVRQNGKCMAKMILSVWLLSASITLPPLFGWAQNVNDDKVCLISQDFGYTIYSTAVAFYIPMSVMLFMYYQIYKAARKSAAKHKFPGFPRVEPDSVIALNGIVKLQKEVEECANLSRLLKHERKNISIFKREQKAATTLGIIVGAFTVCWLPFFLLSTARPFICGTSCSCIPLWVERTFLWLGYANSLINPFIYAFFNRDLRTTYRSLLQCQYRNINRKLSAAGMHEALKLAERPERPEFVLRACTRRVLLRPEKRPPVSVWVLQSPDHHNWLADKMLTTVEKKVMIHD

[5] = target: T1, Alpha-1A adrenergic receptor (Homo sapiens, UniProt P35348)
T1 sequence (P35348 whole entry): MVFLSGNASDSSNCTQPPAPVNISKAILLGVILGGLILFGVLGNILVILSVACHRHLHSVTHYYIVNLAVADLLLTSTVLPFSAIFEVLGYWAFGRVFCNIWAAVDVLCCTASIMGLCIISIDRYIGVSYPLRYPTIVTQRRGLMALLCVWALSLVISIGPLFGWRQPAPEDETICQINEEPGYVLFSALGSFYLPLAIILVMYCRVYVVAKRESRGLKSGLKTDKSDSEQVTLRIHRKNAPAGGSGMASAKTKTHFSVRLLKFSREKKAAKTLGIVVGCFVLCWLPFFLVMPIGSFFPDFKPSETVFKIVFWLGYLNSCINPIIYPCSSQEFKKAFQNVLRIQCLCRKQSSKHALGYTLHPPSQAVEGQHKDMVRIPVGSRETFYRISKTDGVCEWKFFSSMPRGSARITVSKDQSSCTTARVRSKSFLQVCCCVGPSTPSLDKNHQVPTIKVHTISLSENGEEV

[6] = target: T2, 5-hydroxytryptamine receptor 2C (Rattus norvegicus, UniProt P08909)
T2 sequence (P08909 whole entry): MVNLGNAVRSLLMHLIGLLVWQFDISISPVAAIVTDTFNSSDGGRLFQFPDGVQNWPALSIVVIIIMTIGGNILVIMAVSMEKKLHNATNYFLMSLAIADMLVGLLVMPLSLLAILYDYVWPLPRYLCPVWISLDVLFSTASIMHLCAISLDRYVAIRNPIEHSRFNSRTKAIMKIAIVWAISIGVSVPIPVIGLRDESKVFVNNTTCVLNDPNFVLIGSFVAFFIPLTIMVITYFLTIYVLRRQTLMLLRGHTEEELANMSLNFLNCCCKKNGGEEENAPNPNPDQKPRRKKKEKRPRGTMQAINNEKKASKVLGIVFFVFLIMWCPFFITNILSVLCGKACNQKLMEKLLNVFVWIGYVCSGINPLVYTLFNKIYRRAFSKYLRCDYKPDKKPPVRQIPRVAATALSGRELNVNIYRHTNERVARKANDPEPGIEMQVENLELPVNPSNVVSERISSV

D(1B) dopamine receptor = D(1B) dopamine receptor (Homo sapiens, UniProt P21918)
Sequence of D(1B) dopamine receptor (P21918 whole entry): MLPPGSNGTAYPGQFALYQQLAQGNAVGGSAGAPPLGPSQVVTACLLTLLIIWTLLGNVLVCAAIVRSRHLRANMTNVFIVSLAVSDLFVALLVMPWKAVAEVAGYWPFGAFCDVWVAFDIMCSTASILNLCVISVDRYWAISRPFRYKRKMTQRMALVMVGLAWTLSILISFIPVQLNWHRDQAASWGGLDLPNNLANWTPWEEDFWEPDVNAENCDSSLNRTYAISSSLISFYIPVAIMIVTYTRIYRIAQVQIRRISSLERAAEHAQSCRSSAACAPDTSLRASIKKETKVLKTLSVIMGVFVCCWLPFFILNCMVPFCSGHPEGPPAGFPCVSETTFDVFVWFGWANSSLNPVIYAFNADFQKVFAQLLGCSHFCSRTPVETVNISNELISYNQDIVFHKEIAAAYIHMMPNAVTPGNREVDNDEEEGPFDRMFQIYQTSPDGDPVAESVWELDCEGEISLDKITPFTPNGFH

[7] = target: T3, Alpha-2B adrenergic receptor (Homo sapiens, UniProt P18089)
T3 sequence (P18089 whole entry): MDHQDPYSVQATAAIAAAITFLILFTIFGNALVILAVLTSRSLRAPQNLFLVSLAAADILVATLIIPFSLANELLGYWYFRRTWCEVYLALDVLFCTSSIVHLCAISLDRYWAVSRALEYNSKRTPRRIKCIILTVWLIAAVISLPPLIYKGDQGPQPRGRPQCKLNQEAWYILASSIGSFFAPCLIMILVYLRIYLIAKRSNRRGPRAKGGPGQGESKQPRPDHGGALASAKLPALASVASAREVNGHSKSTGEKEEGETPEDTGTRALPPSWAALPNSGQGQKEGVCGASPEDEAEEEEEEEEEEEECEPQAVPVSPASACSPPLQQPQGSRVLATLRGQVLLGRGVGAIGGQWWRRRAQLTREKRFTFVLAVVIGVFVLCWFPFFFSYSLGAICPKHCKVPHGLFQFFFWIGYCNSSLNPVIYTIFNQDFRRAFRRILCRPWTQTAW

[8] = target: Gamma-aminobutyric acid receptor subunit alpha-1 (Rattus norvegicus, UniProt P62813)
Sequence of Gamma-aminobutyric acid receptor subunit alpha-1 (P62813 whole entry): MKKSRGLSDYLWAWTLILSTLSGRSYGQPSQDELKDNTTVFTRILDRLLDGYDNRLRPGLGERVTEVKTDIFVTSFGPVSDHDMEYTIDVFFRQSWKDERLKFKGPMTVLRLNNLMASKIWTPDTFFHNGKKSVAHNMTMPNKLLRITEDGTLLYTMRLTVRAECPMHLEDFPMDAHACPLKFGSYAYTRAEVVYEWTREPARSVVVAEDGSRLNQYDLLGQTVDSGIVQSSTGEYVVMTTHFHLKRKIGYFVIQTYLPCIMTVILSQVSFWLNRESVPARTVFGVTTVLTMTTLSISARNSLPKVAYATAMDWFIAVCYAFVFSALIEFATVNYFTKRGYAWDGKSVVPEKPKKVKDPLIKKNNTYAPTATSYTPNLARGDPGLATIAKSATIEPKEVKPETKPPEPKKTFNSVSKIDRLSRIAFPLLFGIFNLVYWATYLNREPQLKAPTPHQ

[9] = target: Glutamate receptor ionotropic, NMDA 1 (Rattus norvegicus, UniProt P35439)
[10] = target: Delta-type opioid receptor (Sus scrofa, UniProt P79291)
Sequence of Delta-type opioid receptor (Sus scrofa, UniProt P79291) (P79291 whole entry): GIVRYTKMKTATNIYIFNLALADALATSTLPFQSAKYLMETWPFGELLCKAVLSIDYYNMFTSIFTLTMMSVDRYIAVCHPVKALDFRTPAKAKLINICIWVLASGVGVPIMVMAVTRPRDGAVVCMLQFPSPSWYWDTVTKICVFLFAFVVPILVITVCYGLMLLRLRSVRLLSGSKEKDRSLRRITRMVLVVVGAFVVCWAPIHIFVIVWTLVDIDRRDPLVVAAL

[11] = target: Beta-2 adrenergic receptor (Rattus norvegicus, UniProt P10608)
Sequence of Beta-2 adrenergic receptor (P10608 whole entry): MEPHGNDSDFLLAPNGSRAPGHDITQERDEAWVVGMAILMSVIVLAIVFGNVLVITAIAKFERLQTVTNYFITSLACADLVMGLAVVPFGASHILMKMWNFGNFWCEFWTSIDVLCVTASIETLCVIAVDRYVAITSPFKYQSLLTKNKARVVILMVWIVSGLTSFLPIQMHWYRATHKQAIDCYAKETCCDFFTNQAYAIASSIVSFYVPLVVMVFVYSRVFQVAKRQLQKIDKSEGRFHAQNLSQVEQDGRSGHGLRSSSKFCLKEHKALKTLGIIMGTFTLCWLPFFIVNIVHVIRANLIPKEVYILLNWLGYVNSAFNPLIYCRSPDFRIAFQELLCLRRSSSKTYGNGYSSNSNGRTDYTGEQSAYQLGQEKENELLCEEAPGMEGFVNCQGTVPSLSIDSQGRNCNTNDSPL

Vasopressin V2 receptor = Vasopressin V2 receptor (Homo sapiens, UniProt P30518)
Sequence of Vasopressin V2 receptor (P30518 whole entry): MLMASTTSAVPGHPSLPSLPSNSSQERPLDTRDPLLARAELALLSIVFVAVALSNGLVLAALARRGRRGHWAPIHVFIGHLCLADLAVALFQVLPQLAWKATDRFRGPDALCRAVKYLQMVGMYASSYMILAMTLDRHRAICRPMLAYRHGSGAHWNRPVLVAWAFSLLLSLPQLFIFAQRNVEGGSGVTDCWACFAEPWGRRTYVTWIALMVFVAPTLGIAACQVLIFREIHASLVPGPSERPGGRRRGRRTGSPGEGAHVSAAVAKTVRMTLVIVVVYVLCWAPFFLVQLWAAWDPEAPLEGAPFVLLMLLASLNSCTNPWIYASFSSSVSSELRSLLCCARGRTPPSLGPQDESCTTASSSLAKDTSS

[12] = target: T4, Alpha-2A adrenergic receptor (Homo sapiens, UniProt P08913)
T4 sequence (P08913 whole entry): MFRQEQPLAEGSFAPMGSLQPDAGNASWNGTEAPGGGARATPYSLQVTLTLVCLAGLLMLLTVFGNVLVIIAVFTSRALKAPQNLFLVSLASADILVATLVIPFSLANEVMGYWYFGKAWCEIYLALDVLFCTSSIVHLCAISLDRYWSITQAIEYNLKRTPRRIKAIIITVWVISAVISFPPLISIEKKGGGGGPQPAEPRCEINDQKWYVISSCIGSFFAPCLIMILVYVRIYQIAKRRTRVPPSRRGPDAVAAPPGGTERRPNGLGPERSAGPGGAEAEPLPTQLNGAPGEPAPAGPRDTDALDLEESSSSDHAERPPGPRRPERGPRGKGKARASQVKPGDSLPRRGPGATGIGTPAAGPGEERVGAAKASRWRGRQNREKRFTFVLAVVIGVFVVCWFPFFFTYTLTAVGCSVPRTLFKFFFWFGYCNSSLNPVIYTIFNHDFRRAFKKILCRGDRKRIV

[13] = target: Delta-type opioid receptor (Homo sapiens, UniProt P41143)
Sequence of Delta-type opioid receptor (Homo sapiens, UniProt P41143) (P41143 whole entry): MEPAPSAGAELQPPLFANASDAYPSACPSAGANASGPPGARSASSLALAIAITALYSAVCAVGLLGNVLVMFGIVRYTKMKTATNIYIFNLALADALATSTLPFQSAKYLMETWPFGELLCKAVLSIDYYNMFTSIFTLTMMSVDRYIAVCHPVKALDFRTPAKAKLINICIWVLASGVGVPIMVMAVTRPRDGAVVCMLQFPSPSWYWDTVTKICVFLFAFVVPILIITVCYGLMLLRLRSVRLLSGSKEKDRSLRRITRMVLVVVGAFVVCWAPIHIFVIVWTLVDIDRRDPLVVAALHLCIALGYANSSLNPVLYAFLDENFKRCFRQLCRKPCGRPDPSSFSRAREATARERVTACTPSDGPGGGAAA

[14] = target: 5-hydroxytryptamine receptor 1B (Homo sapiens, UniProt P28222)

Sequence of Sodium-dependent noradrenaline transporter (P23975 whole entry): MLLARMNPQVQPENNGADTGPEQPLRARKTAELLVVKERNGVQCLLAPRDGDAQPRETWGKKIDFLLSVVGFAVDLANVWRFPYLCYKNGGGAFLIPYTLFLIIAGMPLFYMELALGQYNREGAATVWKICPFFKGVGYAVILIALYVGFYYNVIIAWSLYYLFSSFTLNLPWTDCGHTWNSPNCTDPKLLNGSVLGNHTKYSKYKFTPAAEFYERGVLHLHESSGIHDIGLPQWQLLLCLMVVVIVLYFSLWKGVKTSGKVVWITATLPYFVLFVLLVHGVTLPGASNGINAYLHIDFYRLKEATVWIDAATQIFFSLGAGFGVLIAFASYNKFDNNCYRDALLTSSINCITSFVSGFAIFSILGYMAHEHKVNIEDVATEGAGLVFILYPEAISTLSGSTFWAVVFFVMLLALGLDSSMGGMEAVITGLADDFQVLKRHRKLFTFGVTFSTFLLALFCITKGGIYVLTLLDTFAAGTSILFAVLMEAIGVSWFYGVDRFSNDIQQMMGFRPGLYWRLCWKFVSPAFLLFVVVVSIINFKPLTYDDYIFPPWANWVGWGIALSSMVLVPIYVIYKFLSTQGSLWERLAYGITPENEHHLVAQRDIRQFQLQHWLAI
Sequence of Mu-type opioid receptor (P35372 whole entry): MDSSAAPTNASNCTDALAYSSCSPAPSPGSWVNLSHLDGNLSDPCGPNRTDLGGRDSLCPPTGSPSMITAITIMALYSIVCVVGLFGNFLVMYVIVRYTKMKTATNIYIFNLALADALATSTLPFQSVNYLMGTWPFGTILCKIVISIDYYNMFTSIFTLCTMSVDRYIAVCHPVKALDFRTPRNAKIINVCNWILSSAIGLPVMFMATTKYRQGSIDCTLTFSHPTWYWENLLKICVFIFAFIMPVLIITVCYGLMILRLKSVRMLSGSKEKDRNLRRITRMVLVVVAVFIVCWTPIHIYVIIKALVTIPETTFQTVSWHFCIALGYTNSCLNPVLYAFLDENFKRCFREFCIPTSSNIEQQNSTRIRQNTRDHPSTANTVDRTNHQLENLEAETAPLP
Sequence of Kappa-type opioid receptor (P41145 whole entry): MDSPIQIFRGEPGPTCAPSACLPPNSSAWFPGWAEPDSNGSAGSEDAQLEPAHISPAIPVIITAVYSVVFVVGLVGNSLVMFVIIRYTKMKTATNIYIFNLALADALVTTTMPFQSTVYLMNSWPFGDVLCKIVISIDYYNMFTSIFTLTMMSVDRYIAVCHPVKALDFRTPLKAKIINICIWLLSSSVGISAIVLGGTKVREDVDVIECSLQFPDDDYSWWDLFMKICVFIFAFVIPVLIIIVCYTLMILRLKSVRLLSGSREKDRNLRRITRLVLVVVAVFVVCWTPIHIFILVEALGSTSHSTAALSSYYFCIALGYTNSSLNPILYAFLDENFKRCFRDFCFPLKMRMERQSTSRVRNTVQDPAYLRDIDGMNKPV
Sequence of Sodium-dependent serotonin transporter (P31645 whole entry): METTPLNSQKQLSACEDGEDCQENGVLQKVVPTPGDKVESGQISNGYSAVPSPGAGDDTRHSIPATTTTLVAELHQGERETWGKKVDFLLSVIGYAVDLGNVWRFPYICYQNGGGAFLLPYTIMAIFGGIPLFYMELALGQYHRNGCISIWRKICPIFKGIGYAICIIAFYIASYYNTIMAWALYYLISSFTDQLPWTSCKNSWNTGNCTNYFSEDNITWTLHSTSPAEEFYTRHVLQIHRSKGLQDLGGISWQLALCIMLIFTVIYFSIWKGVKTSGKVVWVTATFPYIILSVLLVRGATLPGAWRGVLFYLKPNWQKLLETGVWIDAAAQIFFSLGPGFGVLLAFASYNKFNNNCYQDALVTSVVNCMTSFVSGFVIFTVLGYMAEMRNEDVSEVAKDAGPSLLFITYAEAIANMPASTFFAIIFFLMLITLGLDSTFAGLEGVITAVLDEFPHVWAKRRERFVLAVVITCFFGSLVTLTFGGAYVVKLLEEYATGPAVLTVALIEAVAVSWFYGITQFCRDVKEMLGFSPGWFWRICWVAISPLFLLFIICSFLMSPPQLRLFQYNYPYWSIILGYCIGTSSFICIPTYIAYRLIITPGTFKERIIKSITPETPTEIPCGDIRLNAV

Structure (SMILES)	Ki [1] [µM]	Ki (Mu-type opioid receptor) [µM]	Ki [2] [µM]	Ki [3] [µM]	Ki [4] [µM]	Ki [5] [µM]	Ki [6] [µM]	Ki (D(1B) dopamine receptor) [µM]	Ki [7] [µM]	Ki [8] [µM]	Ki [9] [µM]	Ki [10] [µM]	Ki [11] [µM]	Ki (Vasopressin V2 receptor) [µM]	Ki [12] [µM]	Ki [13] [µM]	Ki [14] [µM]
C[C@@H]1O[C@@H](Oc2c(-c3ccc(O)c(O)c3)oc3cc(O)cc(=O)c-3c2O)[C@H](O)[C@H](O)[C@H]1O	> 10	> 10	> 10	> 10	> 10	> 10	> 10	> 10	> 10	> 10	> 10	> 10	> 10	> 10	> 10	–	–
O=c1c(O)c(-c2ccc(O)c(O)c2)oc2cc(O)cc(O)c12 [2-(3,4-dihydroxyphenyl)-3,5,7-trihydroxy-chromone;hydrate]	> 10	–	–	–	> 10	–	> 10	> 10	> 10	–	–	> 10	> 10	–	> 10	–	–
O=c1cc(O)cc2oc(-c3ccc(O)c(O)c3)c(OC3OC(CO)C(O)C(O)C3O)c(O)c1-2 (centres undefined) [NSC_5318390]	> 10	> 10	> 10	> 10	> 10	> 10	> 10	> 10	> 10	> 10	> 10	> 10	> 10	> 10	–	–	–
CC(C)=CCC[C@]1(C)[C@@H](CC=C(C)C)C[C@]2(CC=C(C)C)C(=O)C(CC=C(C)C)C(=O)[C@]1(C(=O)C(C)C)C2=O (some centres undefined)	> 10	> 10	–	> 10	> 10	> 10	> 10	> 10	> 10	> 10	> 10	> 10	> 10	> 10	> 10	–	–
O=c1cc(O)cc2oc(-c3ccc(O)c(-c4c(O)cc(O)c5c(=O)cc(-c6ccc(O)cc6)oc45)c3)cc(O)c1-2	> 10	> 10	–	> 10	> 10	> 10	–	> 10	> 10	–	> 10	–	> 10	> 10	> 10	0.0365	4.09
C[C@@H]1O[C@@H](OC[C@H]2O[C@@H](Oc3c(-c4ccc(O)c(O)c4)oc4cc(O)cc(O)c4c3=O)[C@H](O)[C@@H](O)[C@@H]2O)[C@H](O)[C@H](O)[C@H]1O [3-Rhamnoglucosylquercetin]	> 10	> 10	> 10	> 10	> 10	> 10	> 10	> 10	> 10	> 10	> 10	> 10	> 10	> 10	9.34	–	–
